Test results taken from ChEMBL document CHEMBL1201862, “PubChem BioAssay data set” (2004).
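Cultured in 96-well plates, cells were exposed to test compound for 48 hours across five concentrations. At the GI50, growth is halved.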 Active and inactive are the calls of the source. No stated cut-off is given here; in the data, active = GI50 up to about 1.1 µM and inactive = higher.

How the values were obtained:
Assay in all cases: growth of human tumour cells (NCI), 48 h
786-0 = system: 786-0
CAKI-1 = system: CAKI-1
DU-145 = system: DU-145
EKVX = system: EKVX
HCT-15 = system: HCT-15
HT-29 = system: HT-29
Hs-578T = system: Hs-578T
KM12 = system: KM12
M14 = system: M14
MCF7 = system: MCF7
MDA-MB-231 = system: MDA-MB-231
NCI-H226 = system: NCI-H226
OVCAR-4 = system: OVCAR-4
RXF 393 = system: RXF 393
SK-MEL-28 = system: SK-MEL-28
SNB-75 = system: SNB-75
SR = system: SR
U-251 = system: U-251
UO-31 = system: UO-31
A498 = system: A498

Row | Compound | GI50 (786-0) | GI50 (CAKI-1) | GI50 (DU-145) | GI50 (EKVX) | GI50 (HCT-15) [µM] | GI50 (HT-29) | GI50 (Hs-578T) | GI50 (KM12) | GI50 (M14) | GI50 (MCF7) | GI50 (MDA-MB-231) | GI50 (NCI-H226) | GI50 (OVCAR-4) | GI50 (RXF 393) | GI50 (SK-MEL-28) | GI50 (SNB-75) | GI50 (SR) | GI50 (U-251) | GI50 (UO-31) | GI50 (A498)
1 | CC(=O)OCCOCn1c2c(c(=O)[nH]c1=O)CCC2 | > 100 µM (inactive) | > 100 µM (inactive) | > 100 µM (inactive) | > 100 µM (inactive) | > 100 | > 100 µM (inactive) | > 100 µM (inactive) | > 100 µM (inactive) | > 100 µM (inactive) | > 100 µM (inactive) | > 100 µM (inactive) | > 100 µM (inactive) | > 100 µM (inactive) | > 100 µM (inactive) | > 100 µM (inactive) | > 100 µM (inactive) | > 100 µM (inactive) | > 100 µM (inactive) | > 100 µM (inactive) | 
2 | COC(=O)c1ccc(Cc2cc(Cc3ccc(C(=O)OC)cc3)cc(Cc3ccc(C(=O)OC)cc3)c2)cc1 | > 25 µM (inactive) |  | > 25 µM (inactive) | > 25 µM (inactive) | > 25 | > 25 µM (inactive) | > 25 µM (inactive) | > 25 µM (inactive) | > 25 µM (inactive) | > 25 µM (inactive) | > 25 µM (inactive) | > 25 µM (inactive) | 16.5 µM (inactive) |  | > 25 µM (inactive) | > 25 µM (inactive) | > 25 µM (inactive) | > 25 µM (inactive) | > 25 µM (inactive) | > 25 µM (inactive)
3 | Cc1nc2cn3c(c2c(=O)[nH]1)CCCCC3 | > 100 µM (inactive) | > 100 µM (inactive) | > 100 µM (inactive) | > 100 µM (inactive) | > 100 | > 100 µM (inactive) | > 100 µM (inactive) | > 100 µM (inactive) | > 100 µM (inactive) | > 100 µM (inactive) | 28.2 µM (inactive) | > 100 µM (inactive) | > 100 µM (inactive) | > 100 µM (inactive) | > 100 µM (inactive) | > 100 µM (inactive) | > 100 µM (inactive) | > 100 µM (inactive) | > 100 µM (inactive) | > 100 µM (inactive)
4 | CC(C(=O)N1c2ccccc2Sc2ccccc21)N1c2ccccc2Sc2ccccc21 (stereo not given) | 88.1 µM (inactive) |  | > 100 µM (inactive) | > 100 µM (inactive) | > 100 | 72.3 µM (inactive) | > 100 µM (inactive) | 72.1 µM (inactive) | > 100 µM (inactive) | 42.9 µM (inactive) | > 100 µM (inactive) | 40.1 µM (inactive) | > 100 µM (inactive) | > 100 µM (inactive) | > 100 µM (inactive) | 96.4 µM (inactive) | > 100 µM (inactive) | 60 µM (inactive) | 70.1 µM (inactive) | 31.8 µM (inactive)
5 | O=C(c1cccc(F)c1F)N1CCc2c([nH]c3ccccc23)C1c1ccc2c(c1)OCO2 (stereo not given) | 22.5 µM (inactive) | 15.5 µM (inactive) | 18.2 µM (inactive) | 8.32 µM (inactive) | 3.73 | 8.32 µM (inactive) | 23.8 µM (inactive) | 4.92 µM (inactive) | 3.85 µM (inactive) | 4.27 µM (inactive) | 7.87 µM (inactive) |  | 11.1 µM (inactive) | 4.99 µM (inactive) | 32.1 µM (inactive) | 1.99 µM (inactive) | 3.61 µM (inactive) | 11.1 µM (inactive) | 10.9 µM (inactive) | 7.55 µM (inactive)
6 | C=C(C)C(=O)O[C@H]1C[C@@]23O[C@@H]2CCC(=C[C@H]2OC(=O)C(=C)[C@H]12)COC3O (stereo not given in full) | 35.3 µM (inactive) | > 100 µM (inactive) | > 100 µM (inactive) | 49.2 µM (inactive) | 19.5 | 57.5 µM (inactive) | > 100 µM (inactive) | > 100 µM (inactive) | 57.5 µM (inactive) | 30.6 µM (inactive) | > 100 µM (inactive) | > 100 µM (inactive) | > 100 µM (inactive) | 25.1 µM (inactive) |  | > 100 µM (inactive) | 24.7 µM (inactive) | > 100 µM (inactive) |  | > 100 µM (inactive)
7 | CCCCCC(C)(C)CCC(=O)OC1OC(COC2OC(COC3OC(CO)C(O)C(O)C3O)C(O)C(O)C2O)C(O)C(O)C1O (stereo not given) | > 100 µM (inactive) |  | > 100 µM (inactive) | > 100 µM (inactive) | > 100 | > 100 µM (inactive) | > 100 µM (inactive) | > 100 µM (inactive) | > 100 µM (inactive) | > 100 µM (inactive) | > 100 µM (inactive) | > 100 µM (inactive) |  | 6.17 µM (inactive) |  |  | > 100 µM (inactive) | > 100 µM (inactive) | > 100 µM (inactive) | > 100 µM (inactive)
8 | N/C(CSCCSC/C(N)=N/O)=N\O | > 100 µM (inactive) | > 100 µM (inactive) | > 100 µM (inactive) | > 100 µM (inactive) | > 100 | > 100 µM (inactive) | > 100 µM (inactive) | > 100 µM (inactive) | > 100 µM (inactive) | > 100 µM (inactive) | > 100 µM (inactive) | > 100 µM (inactive) | > 100 µM (inactive) | > 100 µM (inactive) | > 100 µM (inactive) | > 100 µM (inactive) | > 100 µM (inactive) | > 100 µM (inactive) | > 100 µM (inactive) | 
9 | COc1ccc2c3c1OC1C4(CCC5C(C2)N(CC2CC2)CCC351)OCCO4 (stereo not given) | > 100 µM (inactive) | > 100 µM (inactive) | > 100 µM (inactive) | > 100 µM (inactive) | > 100 | > 100 µM (inactive) | > 100 µM (inactive) | > 100 µM (inactive) | > 100 µM (inactive) | > 100 µM (inactive) | > 100 µM (inactive) | > 100 µM (inactive) | > 100 µM (inactive) | > 100 µM (inactive) | > 100 µM (inactive) | > 100 µM (inactive) | > 100 µM (inactive) | > 100 µM (inactive) | > 100 µM (inactive) | 
10 | CC1C2C=CC1C(c1c3ccc(=O)c(O)c-3oc3c(O)c(O)ccc13)C2C(=O)O (stereo not given) | 61 µM (inactive) | > 100 µM (inactive) | > 100 µM (inactive) | 50.9 µM (inactive) | 47.2 | > 100 µM (inactive) | 89.5 µM (inactive) | 50.2 µM (inactive) | > 100 µM (inactive) | 20.7 µM (inactive) | > 100 µM (inactive) | 10.2 µM (inactive) | 78.9 µM (inactive) | > 100 µM (inactive) | > 100 µM (inactive) |  | 33.9 µM (inactive) | 36.5 µM (inactive) | > 100 µM (inactive) | > 100 µM (inactive)
11 | Cc1ccc2nc(-c3ccc(N4C(=O)C(Cl)C4c4ccc(Cl)cc4)cc3)sc2c1 (stereo not given) | 21.9 µM (inactive) | 15.5 µM (inactive) | 27.2 µM (inactive) | 2.62 µM (inactive) | 27.3 | 1.95 µM (inactive) | 23.3 µM (inactive) | 16.8 µM (inactive) | 21.4 µM (inactive) | 14.6 µM (inactive) | 13.5 µM (inactive) | 13.8 µM (inactive) | 1.95 µM (inactive) |  | 8.75 µM (inactive) |  | 24.2 µM (inactive) | 19.2 µM (inactive) | 21.4 µM (inactive) | 
12 | CCCCc1ccc(Nc2nc(Cl)c3ncn(C4CC(Oc5ccc(C)cc5)C(COc5ccc(C)cc5)O4)c3n2)cc1 (stereo not given) | > 100 µM (inactive) | 6.52 µM (inactive) | > 100 µM (inactive) | > 100 µM (inactive) | > 100 | > 100 µM (inactive) | > 100 µM (inactive) | > 100 µM (inactive) | > 100 µM (inactive) | > 100 µM (inactive) | > 100 µM (inactive) | > 100 µM (inactive) |  | > 100 µM (inactive) |  | > 100 µM (inactive) | > 100 µM (inactive) |  | > 100 µM (inactive) | > 100 µM (inactive)
13 | Brc1ccc2c3c1[C@H]1O[C@H]1c1cccc(c1-3)[C@@H]1O[C@H]21 | 12.4 µM (inactive) | 17.8 µM (inactive) | 13 µM (inactive) | 18.6 µM (inactive) | 21.3 | 8.11 µM (inactive) | 23.1 µM (inactive) | 15.2 µM (inactive) | 17.2 µM (inactive) | 17.4 µM (inactive) | 20.6 µM (inactive) | 24.5 µM (inactive) | 15.1 µM (inactive) |  | 15.9 µM (inactive) | 13.2 µM (inactive) | 20.2 µM (inactive) | 14 µM (inactive) | 17.3 µM (inactive) | 21.2 µM (inactive)
14 | O=C(O)Cc1cccc2c1OC(c1ccccc1)C(C(=O)c1ccccc1)C2=O (stereo not given) | 52.5 µM (inactive) | 42.1 µM (inactive) | 69 µM (inactive) | 36.2 µM (inactive) | 98.4 | > 10 µM (inactive) | > 100 µM (inactive) | 25.6 µM (inactive) |  | 34.6 µM (inactive) | 32.7 µM (inactive) | > 100 µM (inactive) |  | > 100 µM (inactive) | 65.3 µM (inactive) | 12.2 µM (inactive) | 39.3 µM (inactive) | 40.9 µM (inactive) | 88.9 µM (inactive) | 
15 | CC(C)(CO)CNc1nc(N)nc(Cl)c1/C=N/O | 36.7 µM (inactive) | 23.8 µM (inactive) | 31.4 µM (inactive) | 17.5 µM (inactive) | 61.7 | 42.1 µM (inactive) | 27 µM (inactive) | 84.5 µM (inactive) |  | 23.8 µM (inactive) | 25.8 µM (inactive) | 22.6 µM (inactive) | 34 µM (inactive) | 22.2 µM (inactive) | 48.4 µM (inactive) | 50.9 µM (inactive) | 24.1 µM (inactive) | 48.6 µM (inactive) | 17.3 µM (inactive) | 23.9 µM (inactive)
